Here are results for three compounds from US11292801B2, “Calpain modulators and therapeutic uses thereof” (Blade Therapeutics, Inc., priority 2016, dated 2022).

Like-named read-outs stand apart in the source and are kept apart here.

The conditions of this data set: rcm bond.

For the setting “from C=CCCOc1ccnc(-c2ccccc2C(=O)N[C@@H](CC=C)C(=O)N(C)OC)c1, Zhan Catalyst-1B, DCE, 2.87 mM, 95.0 °C, 16.0 h”, `CON(C)C(=O)[C@@H]1CC=CCCOc2ccnc(c2)-c2ccccc2C(=O)N1` registered a ring closure, yield of all isomers of 43.4%.

`CON(C)C(=O)[C@@H]1CC=CCCCCCc2ccccc2C(=O)N1`: the ring closure, yield of all isomers (from C=CCCCCCc1ccccc1C(=O)N[C@@H](CC=C)C(=O)N(C)OC, Grubbs 2nd generation catalyst, DCM, 6.37 mM, 48.0 °C, 16.0 h) was found to be 49.4%.

Compound `COC(=O)[C@@H]1Cc2ccc(cc2)OCC=CCOc2cccc(c2)-c2ccn(n2)-c2ncccc2C(=O)N1` gave a ring closure, yield of all isomers (from C=CCOc1ccc(C[C@H](NC(=O)c2cccnc2-n2ccc(-c3cccc(OCC=C)c3)n2)C(=O)OC)cc1, Grubbs II, 1,2-dichloroethane, 8.35 mM, 90.0 °C, 48.0 h) of 47%.
